Assay results from patent publication US20240018153A1, “BENZENESULFONAMIDE DERIVATIVES AND USES THEREOF” (2692372 ONTARIO, INC., priority 2020, published 2024).

Assays:
BTK = BTK (Homo sapiens (Human), UniProt Q06187); assay: HTRF KinEASE-TK kinase assay, BTK; type: biochemical; details: 3 h preincubation; for remaining activity at 1 µM: 1 μM compound, read-out: % BTK Remaining activity vs DMSO (1 μM, 3 h); for remaining activity at 10 µM: 10 μM compound, read-out: % BTK Remaining activity vs DMSO (10 μM, 3 h)
Summary of the method: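 Read-out was the 665 nm to 620 nm ratio, taken 60 min after detection, reflecting phosphorylated biotinylated substrate. Before this, BTK reacted 45 min with substrate and ATP in kinase buffer supplemented with MnCl2 (10 mM), MgCl2 (5 mM), ATPγS (1 uM) and TCEP (1 mM).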

JAK3 = JAK3 (Homo sapiens (Human), UniProt P52333); assay: HTRF KinEASE-TK kinase assay, JAK3; type: biochemical; details: for remaining activity at 1 µM: read-out: % JAK3 Remaining activity vs DMSO (1 μM, 3 h); for remaining activity at 10 µM: read-out: % JAK3 Remaining activity vs DMSO (10 μM, 3 h)
Summary of the method: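 HTRF read-out: the Em665/Em620 ratio, measured 60 min after stopping with EDTA, 31.25 nM SA-XL665 and 100-fold diluted Eu-antibody, was taken as phosphorylated substrate. Beforehand, 0.21 nM JAK3 (0.0133 ng/µl) sat with compound for 3 h at room temperature, then biotinylated substrate plus ATP started the reaction.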

EGFR = EGFR (Homo sapiens (Human), UniProt P00533); assay: HTRF KinEASE-TK kinase assay, EGFR; type: biochemical; details: 3 h preincubation; for remaining activity at 1 µM: 1 μM compound, read-out: % EGFR Remaining activity vs DMSO (1 μM, 3 h); for remaining activity at 10 µM: 10 μM compound, read-out: % EGFR Remaining activity vs DMSO (10 μM, 3 h)
Summary of the method: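 Buffer contained 5 mM MgCl2, 2 mM MnCl2 and 1 mM TCEP; compounds at two final concentrations, 1 and 10 uM, with 0.5% DMSO, pre-incubated with the enzyme.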

BMX = BMX (Homo sapiens (Human), UniProt P51813); assay: HTRF KinEASE-TK kinase assay, BMX; type: biochemical; details: for remaining activity at 1 µM: 1 uM compound; for remaining activity at 1 µM / remaining activity at 10 µM: 3 h preincubation; for remaining activity at 10 µM: 10 uM compound
Summary of the method: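 Phosphorylation was quantified by HTRF KinEASE-TK as the 665/620 nm ratio, read 60 min after EDTA stop with SA-XL665 (31.25 nM) and europium antibody. Before the reaction, 3.03 nM BMX was preincubated with compound for 3 hours at room temperature, and the reaction was started with biotinylated substrate plus ATP.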

[1] = target: His-tagged BTK protein (SEQ ID NO: 1) (Homo sapiens (Human), UniProt Q06187); assay: Intact mass analysis (LC-MS/MS) of covalent modification; type: binding; details: His-tagged BTK (unmodified 32,650 Da) incubated with compound
Description: The covalent modification of the proteins with the compounds were evaluated using intact mass analysis by liquid chromatography-mass spectrometry instrument (LC-MS/MS).
The reaction solution (20 μL) was prepared in 96-well plate and contained the protein (2 μM), the compound (100 μM), HEPES buffer (20 mM, pH 8), 2% DMSO, 2% glycerol, and 150 mM NaCl. The reaction was allowed to proceed for 24 h at 25° C. The reaction solution (1 μL) was injected into the LC/MS/MS without any further sample preparation.
The LC-MS/MS instrument comprises of a Waters G2-XS quadrupole-time of flight (QTof) mass spectrometer and a Waters Acuity I-class Ultra-High Performance Liquid Chromatography (UPLC) system. The I-class UPLC system includes a binary solvent manager (BSM), and a Acquity sample manager (SM). The mobile phase consisted of: A) 0.1% (v/v) formic acid in MilliQ water; B) 0.1% (v/v) formic acid acetonitrile. Gradients were run over 5 min and proceeded as follows: A:B, 85:15, 0.0-0.7 min, 85:15→15:85, 0.7-1.5 min, 10:90, 1.5-4 min, 10:90→85:15, 4-4.5 min, 85:15, 4.5-5 min. The analytical column was a Waters BEH C4 column 1.7 μm (50×1 mm) column with pore sizes of […]. The TOF MS data was collected in positive ion mode (m/z of 400-2000 Da) using MassLynx software (Waters).
The spectral deconvolution was performed using UNIFI software (Waters). The added mass of the protein upon covalent modification to cysteine residues were specified. Multiple modification of up to 8 cysteine was allowed. All the adducts with signal intensities of <2% of the base peak were ignored. The % modification was calculated as the adduct signal intensity over the total intensities of the protein peaks and the adducts.

FGFR4 = FGFR4 (Homo sapiens (Human), UniProt P22455); assay: HTRF KinEASE-TK kinase assay, FGFR4; type: biochemical; details: for remaining activity at 1 µM: read-out: % FGFR4 Remaining activity vs DMSO (1 μM, 3 h); for remaining activity at 10 µM: read-out: % FGFR4 Remaining activity vs DMSO (10 μM, 3 h)
Summary of the method: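 HTRF ratio (Em 665/620 nm) measured 60 min after EDTA stop with SA-XL665 (31.25 nM) and europium antibody reflects phosphorylated biotinylated substrate. Before substrate/ATP addition, 5.12 nM (0.333 ng/ul) FGFR4 sat with compound 3 h at room temperature.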

Chain of JAK3 (P52333 781-1124): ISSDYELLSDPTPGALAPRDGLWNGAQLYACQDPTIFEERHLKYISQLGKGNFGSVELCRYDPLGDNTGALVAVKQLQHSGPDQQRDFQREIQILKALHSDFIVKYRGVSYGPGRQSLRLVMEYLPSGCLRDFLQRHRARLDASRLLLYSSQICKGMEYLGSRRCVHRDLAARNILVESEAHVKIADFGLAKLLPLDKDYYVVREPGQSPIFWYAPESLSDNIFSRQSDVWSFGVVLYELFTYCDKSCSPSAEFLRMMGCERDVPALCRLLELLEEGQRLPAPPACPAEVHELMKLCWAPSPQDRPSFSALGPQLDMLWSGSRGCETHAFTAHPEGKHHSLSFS
Chain of BTK (Q06187 whole entry): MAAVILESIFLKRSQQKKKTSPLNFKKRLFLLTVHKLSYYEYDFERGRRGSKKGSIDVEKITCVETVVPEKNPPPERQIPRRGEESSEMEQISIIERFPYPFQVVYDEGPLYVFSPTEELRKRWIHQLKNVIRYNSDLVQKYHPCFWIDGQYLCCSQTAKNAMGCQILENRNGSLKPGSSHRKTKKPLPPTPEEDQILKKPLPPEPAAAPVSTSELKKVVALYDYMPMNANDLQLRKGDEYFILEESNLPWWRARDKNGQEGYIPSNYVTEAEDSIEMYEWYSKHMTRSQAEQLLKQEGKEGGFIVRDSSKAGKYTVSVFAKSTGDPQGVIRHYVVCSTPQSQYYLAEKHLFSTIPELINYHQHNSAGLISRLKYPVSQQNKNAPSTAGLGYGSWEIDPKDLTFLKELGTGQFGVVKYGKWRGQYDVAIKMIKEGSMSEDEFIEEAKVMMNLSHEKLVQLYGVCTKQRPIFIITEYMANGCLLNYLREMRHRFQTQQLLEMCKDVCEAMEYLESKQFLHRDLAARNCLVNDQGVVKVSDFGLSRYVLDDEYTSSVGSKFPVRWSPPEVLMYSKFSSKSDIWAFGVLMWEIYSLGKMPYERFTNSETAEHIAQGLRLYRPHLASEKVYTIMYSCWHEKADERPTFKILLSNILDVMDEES
Chain of FGFR4 (P22455 22-802): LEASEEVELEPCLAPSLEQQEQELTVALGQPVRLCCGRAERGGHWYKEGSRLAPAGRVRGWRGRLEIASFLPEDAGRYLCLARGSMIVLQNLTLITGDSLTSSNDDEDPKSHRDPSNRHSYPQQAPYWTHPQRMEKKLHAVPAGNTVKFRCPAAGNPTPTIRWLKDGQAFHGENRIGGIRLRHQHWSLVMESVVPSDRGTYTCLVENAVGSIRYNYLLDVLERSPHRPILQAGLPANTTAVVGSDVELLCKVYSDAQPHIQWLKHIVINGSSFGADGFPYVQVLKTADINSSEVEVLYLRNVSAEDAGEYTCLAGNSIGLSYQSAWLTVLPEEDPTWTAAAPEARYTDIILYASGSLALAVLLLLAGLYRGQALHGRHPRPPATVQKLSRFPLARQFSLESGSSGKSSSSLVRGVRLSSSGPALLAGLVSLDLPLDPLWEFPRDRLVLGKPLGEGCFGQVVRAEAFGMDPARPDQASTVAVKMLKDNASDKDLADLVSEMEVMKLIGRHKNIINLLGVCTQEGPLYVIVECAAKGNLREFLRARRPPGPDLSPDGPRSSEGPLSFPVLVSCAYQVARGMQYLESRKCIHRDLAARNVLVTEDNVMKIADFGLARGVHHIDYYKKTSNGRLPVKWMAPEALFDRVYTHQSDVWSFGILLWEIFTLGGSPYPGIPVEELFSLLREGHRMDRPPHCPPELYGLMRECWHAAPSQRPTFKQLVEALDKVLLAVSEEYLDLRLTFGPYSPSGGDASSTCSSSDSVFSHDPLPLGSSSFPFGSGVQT
Chain of BMX (P51813 whole entry): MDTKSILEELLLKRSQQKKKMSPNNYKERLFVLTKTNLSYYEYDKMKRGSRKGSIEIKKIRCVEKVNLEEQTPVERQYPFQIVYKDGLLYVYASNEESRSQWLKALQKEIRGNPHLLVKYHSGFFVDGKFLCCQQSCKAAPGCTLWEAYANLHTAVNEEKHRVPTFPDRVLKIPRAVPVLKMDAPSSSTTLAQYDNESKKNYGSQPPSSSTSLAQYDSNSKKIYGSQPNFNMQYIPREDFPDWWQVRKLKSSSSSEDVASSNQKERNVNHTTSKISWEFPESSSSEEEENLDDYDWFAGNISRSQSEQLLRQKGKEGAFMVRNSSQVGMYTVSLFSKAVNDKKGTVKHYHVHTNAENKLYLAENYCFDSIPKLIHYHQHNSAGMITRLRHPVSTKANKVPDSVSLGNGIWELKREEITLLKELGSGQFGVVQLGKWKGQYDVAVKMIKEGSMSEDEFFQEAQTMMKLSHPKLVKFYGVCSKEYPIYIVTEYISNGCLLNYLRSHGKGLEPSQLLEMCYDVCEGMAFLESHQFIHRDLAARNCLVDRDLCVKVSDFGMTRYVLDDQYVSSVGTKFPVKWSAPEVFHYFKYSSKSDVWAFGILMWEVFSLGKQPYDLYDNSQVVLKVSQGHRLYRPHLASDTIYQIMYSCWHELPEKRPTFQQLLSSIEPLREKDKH
Chain of EGFR (P00533 25-1210): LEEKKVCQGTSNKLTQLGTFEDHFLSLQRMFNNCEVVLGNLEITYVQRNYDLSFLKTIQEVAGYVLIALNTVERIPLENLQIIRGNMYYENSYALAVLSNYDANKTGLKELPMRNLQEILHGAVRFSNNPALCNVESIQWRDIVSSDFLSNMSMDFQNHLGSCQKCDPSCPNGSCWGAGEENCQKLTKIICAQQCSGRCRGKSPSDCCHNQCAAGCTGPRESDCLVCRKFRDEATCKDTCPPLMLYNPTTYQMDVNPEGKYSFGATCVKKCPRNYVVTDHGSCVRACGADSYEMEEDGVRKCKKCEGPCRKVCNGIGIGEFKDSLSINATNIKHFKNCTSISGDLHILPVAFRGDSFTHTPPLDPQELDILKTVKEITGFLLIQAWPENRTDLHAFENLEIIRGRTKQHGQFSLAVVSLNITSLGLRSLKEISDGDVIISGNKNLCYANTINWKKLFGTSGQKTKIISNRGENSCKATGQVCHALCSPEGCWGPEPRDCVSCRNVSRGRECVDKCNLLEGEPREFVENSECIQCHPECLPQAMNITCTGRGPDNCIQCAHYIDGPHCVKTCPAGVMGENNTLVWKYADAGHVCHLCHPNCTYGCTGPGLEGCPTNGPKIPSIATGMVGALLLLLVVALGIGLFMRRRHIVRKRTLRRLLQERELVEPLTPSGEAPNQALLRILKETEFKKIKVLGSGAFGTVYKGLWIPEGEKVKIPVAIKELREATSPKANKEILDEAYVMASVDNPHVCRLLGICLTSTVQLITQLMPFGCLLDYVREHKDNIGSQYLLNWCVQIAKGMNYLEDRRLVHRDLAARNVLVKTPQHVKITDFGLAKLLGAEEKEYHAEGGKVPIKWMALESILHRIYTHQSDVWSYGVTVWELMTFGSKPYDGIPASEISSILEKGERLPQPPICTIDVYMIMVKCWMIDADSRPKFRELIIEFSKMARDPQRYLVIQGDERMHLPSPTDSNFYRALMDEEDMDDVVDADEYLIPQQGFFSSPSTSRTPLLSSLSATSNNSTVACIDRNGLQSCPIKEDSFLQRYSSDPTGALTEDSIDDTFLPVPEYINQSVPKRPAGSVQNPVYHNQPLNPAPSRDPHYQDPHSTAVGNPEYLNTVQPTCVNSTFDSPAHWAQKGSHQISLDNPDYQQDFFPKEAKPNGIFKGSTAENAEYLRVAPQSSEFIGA
Chain of His-tagged BTK protein (SEQ ID NO: 1) (Q06187 other isoform, or with tags, fused parts or gaps): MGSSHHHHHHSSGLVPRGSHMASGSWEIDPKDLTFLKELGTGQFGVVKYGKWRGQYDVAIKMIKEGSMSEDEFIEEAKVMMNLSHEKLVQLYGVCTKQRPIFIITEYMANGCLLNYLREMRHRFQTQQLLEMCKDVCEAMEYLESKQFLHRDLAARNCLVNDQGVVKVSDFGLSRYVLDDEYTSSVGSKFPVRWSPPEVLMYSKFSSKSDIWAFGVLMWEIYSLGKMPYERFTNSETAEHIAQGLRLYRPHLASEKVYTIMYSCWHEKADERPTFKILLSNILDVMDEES

remaining activity at 1 µM (BTK) [%]	remaining activity at 10 µM (BTK) [%]	remaining activity at 1 µM (JAK3) [%]	remaining activity at 10 µM (JAK3) [%]	remaining activity at 1 µM (EGFR) [%]	remaining activity at 10 µM (EGFR) [%]	remaining activity at 1 µM (BMX) [%]	remaining activity at 10 µM (BMX) [%]	IC50 (BMX; dose response) [nM]	covalent adduct mass (intact mass analysis, modification by one molecule) [1]	remaining activity at 1 µM (FGFR4) [%]	remaining activity at 10 µM (FGFR4) [%]	IC50 (JAK3; dose response) [nM]	SMILES
< 50	< 50	< 50	< 50	> 90	> 90	< 50	< 50	< 1000	33,209 Da	50 to 90	< 50	–	COCCOc1ccc(Nc2ncc(F)c(NCCCNS(=O)(=O)c3c(F)c(F)c(F)c(F)c3CF)n2)cc1 [Compound I-56, 2,3,4,5-tetrafluoro-N-(3-((5-fluoro-2-((4-(2-methoxyethoxy)phenyl)amino)pyrimidin-4-yl)amino)propyl)-6-(fluoromethyl)benzenesulfonamide]
< 50	< 50	< 50	< 50	> 90	> 90	< 50	< 50	–	33,243 Da	50 to 90	< 50	< 1000	COCCOc1ccc(Nc2ncc(F)c(NCCCNS(=O)(=O)c3c(F)c(F)c(F)c(F)c3OC(F)F)n2)cc1 [Compound I-55, 2-(difluoromethoxy)-3,4,5,6-tetrafluoro-N-(3-((5-fluoro-2-((4-(2-methoxyethoxy)phenyl)amino)pyrimidin-4-yl)amino)propyl)benzenesulfonamide]
